Measurements from patent US8263589B2, “Inhibitors of protein aggregation” (Wista Laboratories Ltd., priority 2006, dated 2012).
Read-outs that look alike come from different tables or passages of the source.

Experiments:
[1] = biological target: T1, α-synuclein (fsyn binding to solid phase tsyn) (Homo sapiens, UniProt P37840); assay: Solid phase ELISA assay for synuclein-synuclein binding; conditions: for IC50: 1 μM tsyn-16 (solid phase), 5 μM fsyn-20 (aqueous phase), 50 mM sodium phosphate pH 6.0, 20 mM NaCl, read-out: B50 (μM) in α-synuclein binding assay
T1 construct: full-length α-synuclein (fsyn) was added in the aqueous phase; The core aggregation domain of α-synuclein (amino acids 31-109) was expressed with an N-terminal polyhistidine tag; polyhistidine (N); made in house; host or cells: E. coli
Method: A solid phase assay was used to measure self-association of α-synuclein. tsyn diluted in carbonate buffer (pH 8.5) was bound to the assay plate, and full-length α-synuclein (fsyn) was added in the aqueous phase. The aqueous phase binding buffer was 50 mM Na-phosphate, pH 6.0, 20 mM NaCl, 0.05% Tween-20, 1% fish skin gelatine.
The two α-synuclein proteins were also used in a binding assay. The tsyn is bound in the solid phase, and full-length fsyn is added in the aqueous phase. […]

[2] = biological target: α-synuclein (SSFsyn) in NIE-115 cells (Homo sapiens, UniProt P37840); assay: Cell based assay for α-synuclein aggregation (SSFsyn in NIE-115 cells differentiated with dbcAMP, immunoblot mAb 42); design: species or system mouse; conditions: ratio of α-synuclein to non-specific band falls to 50% of dbcAMP alone; immunoblot mAb 42; read-out: EC50, inhibition of FSyn expression in NIE cells differentiated with dbcAMP
Method: The cell based assay employed a mouse neuroblastoma cell line NIE-115 that had been engineered to express full-length α-synuclein incorporating an N-terminal signal sequence (SSfsyn) to target incorporation of the protein into the membrane (see WO02/059150). When the cells were differentiated with dibutyryl cyclicAMP (dbcAMP) (1 mM) expression of the α-synuclein protein was increased.
α-synuclein protein was detected by immunoblot using various anti-α-synuclein antibodies. These included: mAb 42 (BD Biosciences Cat No. 610787) that recognises an epitope within tsyn (residues 31-109 of α-synuclein). In addition to α-synuclein, mAb 42 also reacts non-specifically with a protein of higher molecular mass (the protein is not recognised by other anti-α-synuclein antibodies). This protein was used as an estimate of cell numbers as the level of this protein in cells correlates with cell density. Drugs were tested with these cells and an inhibitory activity (EC50) was calculated by determining the drug concentration in which the ratio of α-synuclein to the non-specific band fell to 50% of the value for cells treated with dbcAMP alone.
The timing of the addition of the dbcAMP and drug was varied and the length of time that the cells are left in the presence of drug+dbcAMP before collecting cells was also be varied.

[3] = biological target: T2, assembled tsyn (core aggregation domain of α-synuclein, amino acids 31-109) (Homo sapiens, UniProt P37840); assay: Fluorescence assay of disruption of assembled tsyn (thioflavine T / primulin); format: biochemical
T2 construct: The core aggregation domain of α-synuclein (amino acids 31-109) was expressed with an N-terminal polyhistidine tag; polyhistidine (N); made in house; host or cells: E. coli
Method: (§1) α-Synuclein proteins (tsyn or fsyn) were incubated at 37° C. for the times indicated in Figure legends with mixing to induce fibril formation. In some cases, 50 μg/ml heparin was included to enhance fibril formation.
(§2) Samples of 10 μl were then diluted to 100 μl with water, plus thioflavine T or primulin at 1 μM, or 0.2 or 5 μM in some cases. Fluorescence excitation spectra were measured in 96 well plates in a Varian Carey Eclipse Fluorescence Spectrophotometer, with the emission wavelength at 480 nm. Excitation spectra were corrected for the signal measured without tsyn and the peak signal measured from the spectra. The data were normalised to the value measured without compound and P50 values measured from plots of normalised fluorescence against concentration of compound.
The effect of the compounds on thioflavine T and primulin fluorescence could be due to competition for the fluorescence ligand rather than disruption of the fibrils. To test this, the experiment was done at three different concentrations of fluorophore, since the P50 will be dependent on fluorophore concentration only if the effect is due to competition.

[4] = biological target: T3, assembled fsyn (full-length α-synuclein) (Homo sapiens, UniProt P37840); assay: Fluorescence assay of disruption of assembled fsyn (thioflavine T / primulin); format: biochemical; conditions: assembled 47 h with heparin, compound 1 h, read-out: P50 for inhibition of α-synuclein-dependent fluorescence
T3 construct: Full-length α-synuclein (syn) was expressed without a tag, and purified by ion exchange chromatography; made in house; host or cells: E. coli
Method: as §1, §2

parkinsonian tremor = conditions: cited from earlier work
[5] = tsyn-16 assembled with heparin (50 μg/ml), primulin 1 μM, mean ± SEM (n), read-out: P50 (μM) using primulin
[6] = tsyn-16 assembled with heparin (50 μg/ml), thioflavine T 1 μM, mean ± SEM (n), read-out: P50 (μM) using thioflavone T
[7] = assembled tsyn, primulin 0.2 μM, read-out: P50 (mean), effect of fluorophore concentration
[8] = assembled tsyn, primulin 1.0 μM, read-out: P50 (mean), effect of fluorophore concentration
[9] = assembled tsyn, primulin 5.0 μM, read-out: P50 (mean), effect of fluorophore concentration
[10] = assembled tsyn, thioflavine T 0.2 μM, read-out: P50 (mean), effect of fluorophore concentration
[11] = assembled tsyn, thioflavine T 1.0 μM, read-out: P50 (mean), effect of fluorophore concentration
[12] = assembled tsyn, thioflavine T 5.0 μM, read-out: P50 (mean), effect of fluorophore concentration
[13] = tsyn-13, primulin 1 μM, assembled 20 h with heparin, compound 1 h, read-out: P50 for inhibition of α-synuclein-dependent fluorescence
[14] = tsyn-13, thioflavine T 1 μM, assembled 20 h with heparin, compound 1 h, read-out: P50 for inhibition of α-synuclein-dependent fluorescence

For `CNc1ccc2nc3ccc(N(C)C)cc3[s+]c2c1` [Azure B, reference compound], the “activity in the synuclein-synuclein binding assay” value (shortened to “activity”) [1] was “inactive”, the IC50 [1] was > 500 µM and the EC50 [2] was 0.25 µM. The LD50 (NIE cells) was 0.8 µM.

For `CCN(CC)c1cc(C)c2nc3c(C)cc(N(CC)CC)cc3[s+]c2c1` [DMETC], the IC50 [3, 5] was 5 ± 0.9 µM, the IC50 [3, 6] was 0.9 ± 0.2 µM and the “activity” value [1] was “active”. For the same molecule, the IC50 [1] was 0.5 ± 0.1 µM, the EC50 [2] was 0.05 ± 0.04 µM and the LD50 (NIE cells) was 6 µM.

For `Cc1cc2nc3ccc(N(C)C)cc3[s+]c2cc1N` [Tolonium chloride, Tolonium Chloride], the IC50 [3, 5] was 8.8 ± 3.3 µM, the IC50 [3, 6] was 1.5 ± 0.2 µM and the “activity” value [1] was “active”. It also gave an IC50 [1] of 3.3 ± 0.3 µM and an LD50 (NIE cells) of 1.2 µM.

For `Cc1cc(N(C)C)cc2[s+]c3cc(N(C)C)cc(C)c3nc12` [DMMTC, 1,9-Dimethyl-methyl-thioninium chloride], the IC50 [3, 5] was 20.7 ± 7.8 µM, the IC50 [3, 6] was 0.2 µM and the “activity” value [1] was “active”. It also gave an IC50 [1] of 4.9 µM, an EC50 [2] of 0.1 ± 0.02 µM and an LD50 (NIE cells) of 1.2 µM.

`CCN(CC)c1ccc2nc3ccc(N(CC)CC)cc3[s+]c2c1` [ETC, Ethyl-thioninium chloride] gave an IC50 [3, 7] of 41.7 µM, an IC50 [3, 8] of 34 µM and an IC50 [3, 9] of 32.3 µM. It also gave an IC50 [3, 10] of 3.2 µM, an IC50 [3, 11] of 9 µM and an IC50 [3, 12] of 17.6 µM. For the same molecule, the IC50 [3, 13] was 24.1 µM, the IC50 [3, 14] was 30.3 µM and the IC50 [3, 5] was 26 ± 6 µM. It also gave an IC50 [3, 6] of 7.3 ± 3.8 µM, an IC50 ([4]; fsyn-14, primulin) of 30.6 µM and an IC50 ([4]; fsyn-14, thioflavine T) of 25.3 µM. The “activity” value [1] was “active”, the IC50 [1] was 3.8 ± 0.3 µM and the EC50 [2] was 0.08 ± 0.02 µM. It also gave an LD50 (NIE cells) of 38 µM.

In the case of Thionine, the IC50 [3, 5] is reported as 23 ± 2.2 µM, the IC50 [3, 6] is reported as 3.8 ± 0.3 µM and the “activity” value [1] is reported as “active”. For the same molecule, the IC50 [1] was 32.2 ± 11.7 µM and the “effect on Parkinsonian tremor” value (parkinsonian tremor; 4 individuals, MTC intravenously 1 or 2 mg/kg) was “gave no result”.

In the case of `CCc1cc(N(C)C)cc2[s+]c3cc(N(C)C)cc(CC)c3nc12` [DEMTC, 1,9-Diethyl-methyl-thioninium chloride], the “activity” value [1] is reported as “active”, the IC50 [1] is reported as 0.8 ± 0.4 µM and the LD50 (NIE cells) is reported as 3 µM.

For `CN(C)c1ccc2nc3ccc(N)cc3[s+]c2c1` [Azure A, reference compound], the IC50 [3, 5] was 17.9 ± 2 µM, the IC50 [3, 6] was 3.8 ± 0.9 µM and the “activity” value [1] was “inactive”. For the same molecule, the IC50 [1] was > 500 µM, the EC50 [2] was 0.32 µM and the LD50 (NIE cells) was 8.8 µM.

For `CN(C)c1ccc2nc3ccc(N(C)C)cc3[s+]c2c1` [MTC, methyl-thioninium chloride], the IC50 [3, 7] was 41.7 µM, the IC50 [3, 8] was 35.1 µM and the IC50 [3, 9] was 31.2 µM. The IC50 [3, 10] was 11.6 µM, the IC50 [3, 11] was 12.7 µM and the IC50 [3, 12] was 20.2 µM. For the same molecule, the IC50 [3, 13] was 12.9 µM, the IC50 [3, 14] was 18.5 µM and the IC50 [3, 5] was 30.4 ± 3 µM. For the same molecule, the IC50 [3, 6] was 15.4 ± 3.7 µM, the IC50 ([4]; fsyn-14, primulin) was 23.5 µM and the IC50 ([4]; fsyn-14, thioflavine T) was 3.8 µM. The “activity” value [1] was “active”, the IC50 [1] was 131 ± 15 µM and the “tolerability of oral administration” value (parkinsonian tremor; oral 8 grains (=518 mg)/day) was “discontinued due to side effects”.
